Measured values from patent publication US4771041A, “Method for combating virus infection” (priority 1976, dated 1988).

What was measured:
visna virus = experiment: Visna virus growth in sheep choroid plexus (SCP) cells: virus titre and morphological changes; assay type: cell-based; conditions: 500 μM
Procedure: Visna virus is a retrovirus that can multiply in sheep choroid (SCP) cells. The infection can be followed by titrating medium from infected cells to determine the formation of virus particles and by observing morphological changes as syncytial formation and cell degeneration.
Plates (5 cm) with primary SCP cells in medium 199 with 10% sheep serum were grown to confluence and then infected with 1×10^6 TCID50 (tissue culture infectious doses) of visna virus. One set of plates were left untreated, one set received different concentrations of phosphonoformic acid (PFA) at pH 7.2. Another set received phosphonoacetic acid (PAA) at pH 7.2. Uninfected plates were used as controls with and without PFA and PAA. The virus titre was determined 5 days after infection by the end-point titration method. The plates were checked daily in a light microscope to observe morphological changes.

[1] = design: species or system Cynomolgus monkeys; conditions: cynomolgus monkey, in vivo
Procedure: Phosphonoformic acid, also denoted PFA and phosphonoacetic acid, also denoted PAA were used in the form of their trisodium and disodium salt, respectively. The following equimolar compositions of the two test compounds were used: […]
Two adult male Cynomolgus monkeys were treated once daily for 7 days with PFA or PAA in Arlatone cream. Treatment was done both by topical application of 0.2 ml cream on an area of 3×7 cm on the upper part of the arms and by application of 0.2 ml of cream on the penis and the adjacent skin. During application of cream, the animals were lightly anaesthetized with Ketalar®, given intramuscularly. All applications were 0.2 ml each on day 6/3, 7/3, 8/3, 9/3, 10/3, 11/3 and 12/3 1978.

[2] = tested on: reverse transcriptase from AMV; experiment: Cell-free reverse transcriptase inhibition, AMV; assay type: biochemical, avian myeloblastosis virus
Procedure: (§1) Reverse transcriptase from various retroviruses have been tested in cell-free assays for inhibition by phosphonoformic acid and phosphonoacetic acid. The assay conditions have been described by Collaborative Research, Inc, 1365 Main Street, Waltham, Mass., USA "Assay kit for mammalian viral reverse transcriptase". BLV and VV were prepared in this laboratory and all other viruses and viral enzyme were obtained from Dr. K Nilsson, Department of Pathology, University of Uppsala and from Boehringer Mannheim, Germany. Phosphonoformic acid (PFA) and phosphonoacetic acid (PAA) were added at pH 7.2 to the reaction mixtures at the start of the reaction.
(§2) Rauscher murine leukemia virus; RMuLV, visna virus; VV, avian myeloblastosis virus; AMV, bovine leukemia virus; BLV, baboon endogenous virus; BaEV, simian sarcoma virus; SSV.

[3] = target: T1, reverse transcriptase from SSV (Woolly monkey sarcoma virus, UniProt P03359); experiment: Cell-free reverse transcriptase inhibition, SSV; assay type: biochemical, simian sarcoma virus; conditions: template/primer (rA)n.(dT)10, read-out: Percent inhibition
T1 construct: Reverse transcriptase from various retroviruses have been tested in cell-free assays
Procedure: as §1, §2

[4] = target: T2, reverse transcriptase from VV (Maedi visna virus, UniProt P03370); experiment: Cell-free reverse transcriptase inhibition, VV; assay type: biochemical; conditions: template/primer (rA)n.(dT)10, read-out: Percent inhibition
T2 construct: Reverse transcriptase from various retroviruses have been tested in cell-free assays; made in house
Procedure: as §1, §2

[5] = guinea pig, in vivo
Procedure: Phosphonoformic acid and phosphonoacetic acid were used as their trisodium and disodium salts, respectively. The test substances were used in 1% solutions.
Guinea-pigs of the Dunkin-Hartley strain of both sexes and weighing 200-300 g were used. The back of the animal was shaved and depilated with Opilca® on the day before starting the application of the solutions. The back was divided into six squares in the middle of which 30 μl of the test solutions was applied. In a given group of animals the different solutions were applied in a randomized order alternating between sites. However, the same site was used for repeated application of a given solution.
The irritation was scored on scales of 0 to 3, each grade corresponding to the following specific criteria of irritation:
1=slight erythema or edema or no hair growth
2=moderate erythema or edema or skin discoloration
3=marked erythema or edema or necrosis including crust formation.
The scoring was carried out blindly using coded solutions.
The scores of all the applications for a given solution and time were added and the average score was calculated.
The solvent used was a mixture of glycerol 10.0% (w/v), Tween 80 0.1% and aq sterile ad 100. All solutions were adjusted to pH 6.5 with hydrochloric acid or aqueous sodium hydroxide as required. Thirty μl of 1.0% solutions of phosphonoformic acid and phosphonoacetic acid respectively was applied twice daily during three days to each of six guinea pigs.

[6] = tested on: reverse transcriptase from RMuLV; experiment: Cell-free reverse transcriptase inhibition, RMuLV; assay type: biochemical, Rauscher murine leukemia virus; conditions: template/primer (rA)n.(dT)10
Procedure: as §1, §2

[7] = target: T3, reverse transcriptase from BLV (Bovine leukemia virus, UniProt P03361); experiment: Cell-free reverse transcriptase inhibition, BLV; assay type: biochemical; conditions: template/primer (rA)n.(dT)10, read-out: Percent inhibition
T3 construct: Reverse transcriptase from various retroviruses have been tested in cell-free assays; made in house
Procedure: as §1, §2

[8] = target: T4, reverse transcriptase from BaEV (Baboon endogenous virus, UniProt P10272); experiment: Cell-free reverse transcriptase inhibition, BaEV; assay type: biochemical; conditions: template/primer (rA)n.(dT)10, read-out: Percent inhibition
T4 construct: Reverse transcriptase from various retroviruses have been tested in cell-free assays
Procedure: as §1, §2

T4 sequence (P10272 659-1335): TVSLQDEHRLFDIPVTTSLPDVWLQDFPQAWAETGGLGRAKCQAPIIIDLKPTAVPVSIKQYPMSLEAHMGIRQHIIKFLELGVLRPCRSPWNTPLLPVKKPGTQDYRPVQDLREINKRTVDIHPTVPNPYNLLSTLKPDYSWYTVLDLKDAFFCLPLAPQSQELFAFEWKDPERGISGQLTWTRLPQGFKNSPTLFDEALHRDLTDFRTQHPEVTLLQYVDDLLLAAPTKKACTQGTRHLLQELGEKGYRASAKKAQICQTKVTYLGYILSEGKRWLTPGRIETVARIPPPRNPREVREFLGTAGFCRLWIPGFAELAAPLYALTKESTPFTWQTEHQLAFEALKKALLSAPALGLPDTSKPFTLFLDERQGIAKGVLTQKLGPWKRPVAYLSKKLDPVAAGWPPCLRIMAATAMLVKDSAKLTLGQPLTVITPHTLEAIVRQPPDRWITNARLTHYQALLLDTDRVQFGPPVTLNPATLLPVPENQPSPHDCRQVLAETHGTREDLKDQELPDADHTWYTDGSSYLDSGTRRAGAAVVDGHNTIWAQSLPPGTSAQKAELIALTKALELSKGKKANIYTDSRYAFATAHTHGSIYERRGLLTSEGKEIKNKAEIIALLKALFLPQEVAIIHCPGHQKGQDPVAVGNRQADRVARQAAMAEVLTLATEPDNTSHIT
T1 sequence (P03359 642-1310): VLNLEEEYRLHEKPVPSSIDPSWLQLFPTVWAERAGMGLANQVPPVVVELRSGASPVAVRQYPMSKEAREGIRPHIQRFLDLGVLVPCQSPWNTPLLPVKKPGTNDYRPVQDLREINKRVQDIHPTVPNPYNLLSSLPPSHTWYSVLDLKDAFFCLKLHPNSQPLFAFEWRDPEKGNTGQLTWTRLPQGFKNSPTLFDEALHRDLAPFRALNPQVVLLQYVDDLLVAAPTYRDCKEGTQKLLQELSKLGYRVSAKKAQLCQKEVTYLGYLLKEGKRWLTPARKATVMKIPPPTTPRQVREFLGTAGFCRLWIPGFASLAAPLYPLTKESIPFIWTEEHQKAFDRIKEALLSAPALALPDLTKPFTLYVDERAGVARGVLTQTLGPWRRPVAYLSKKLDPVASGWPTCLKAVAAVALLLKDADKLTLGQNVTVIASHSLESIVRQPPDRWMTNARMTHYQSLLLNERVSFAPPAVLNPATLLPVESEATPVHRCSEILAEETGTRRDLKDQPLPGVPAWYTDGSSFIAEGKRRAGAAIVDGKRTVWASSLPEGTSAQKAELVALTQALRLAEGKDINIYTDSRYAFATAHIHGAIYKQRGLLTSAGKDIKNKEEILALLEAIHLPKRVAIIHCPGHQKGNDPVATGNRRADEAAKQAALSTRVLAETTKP
T3 sequence (P03361 546-1120): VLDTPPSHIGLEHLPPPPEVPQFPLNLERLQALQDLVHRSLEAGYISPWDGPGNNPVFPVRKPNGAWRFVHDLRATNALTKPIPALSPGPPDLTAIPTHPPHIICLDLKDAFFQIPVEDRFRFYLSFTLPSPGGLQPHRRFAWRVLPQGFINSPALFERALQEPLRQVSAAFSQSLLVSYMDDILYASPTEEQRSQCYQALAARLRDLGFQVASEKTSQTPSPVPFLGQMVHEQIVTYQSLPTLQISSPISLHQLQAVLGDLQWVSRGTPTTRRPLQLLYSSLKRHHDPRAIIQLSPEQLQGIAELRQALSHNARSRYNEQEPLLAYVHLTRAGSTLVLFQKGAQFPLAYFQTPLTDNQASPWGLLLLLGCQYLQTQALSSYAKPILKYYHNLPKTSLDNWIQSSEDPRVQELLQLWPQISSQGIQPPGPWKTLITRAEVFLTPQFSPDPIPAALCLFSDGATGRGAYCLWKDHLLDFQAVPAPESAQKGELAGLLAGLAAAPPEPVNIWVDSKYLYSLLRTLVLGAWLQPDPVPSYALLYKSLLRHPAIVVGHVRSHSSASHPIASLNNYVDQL
T2 sequence (P03370 541-1111): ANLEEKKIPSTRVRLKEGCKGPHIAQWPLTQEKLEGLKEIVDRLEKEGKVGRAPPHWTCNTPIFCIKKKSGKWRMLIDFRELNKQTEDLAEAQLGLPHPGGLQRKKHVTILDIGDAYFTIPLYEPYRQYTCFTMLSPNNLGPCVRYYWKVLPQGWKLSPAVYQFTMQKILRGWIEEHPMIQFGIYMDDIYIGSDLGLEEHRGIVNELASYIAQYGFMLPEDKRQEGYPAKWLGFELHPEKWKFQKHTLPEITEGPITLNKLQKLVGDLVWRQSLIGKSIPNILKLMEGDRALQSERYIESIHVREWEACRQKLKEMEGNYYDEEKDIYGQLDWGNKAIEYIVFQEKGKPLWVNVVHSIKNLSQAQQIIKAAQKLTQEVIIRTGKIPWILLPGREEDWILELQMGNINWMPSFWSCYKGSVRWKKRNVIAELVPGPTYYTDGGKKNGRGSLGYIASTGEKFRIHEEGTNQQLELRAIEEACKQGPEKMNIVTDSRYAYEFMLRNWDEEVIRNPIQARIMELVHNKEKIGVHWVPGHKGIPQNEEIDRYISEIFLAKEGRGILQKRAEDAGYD

In the case of `O=C(O)CP(=O)(O)O` [phosphonoacetic acid, reference compound], the “effect on virus multiplication” value (visna virus; SCP cells) is reported as “does not prevent virus multiplication”, the “Morphological changes Day 3” value (visna virus; Visna virus infected cells) is reported as “+ (10% cell degeneration)” and the “Morphological changes Day 5” value (visna virus; Visna virus infected cells) is reported as “++ (25% cell degeneration)”. The “Morphological changes Day 7” value (visna virus; Visna virus infected cells) was “++++ (100% cell degeneration)”, the “Result (skin irritation), area of application penis” value [1] was “Glans penis and adjacent skin areas irritated 9/3-12/3 Adjacent skin areas also showed symptoms 23/3” and the Percent inhibition ([2]; 10 μM, endogenous template) was 0%. For the same compound, the Percent inhibition ([2]; 10 μM, purified enzyme, (rA)n.(dT)10) was 0%, the Percent inhibition ([2]; 10 μM, template/primer (rA)n.(dT)10) was 0% and the Percent inhibition ([2]; 100 μM, endogenous template) was -2%. For the same compound, the Percent inhibition ([2]; 100 μM, purified enzyme, (rA)n.(dT)10) was 0%, the Percent inhibition ([2]; 100 μM, template/primer (rA)n.(dT)10) was -34% and the Percent inhibition ([2]; 500 μM, endogenous template) was -3%. For the same compound, the Percent inhibition ([2]; 500 μM, purified enzyme, (rA)n.(dT)10) was 19%, the Percent inhibition ([2]; 500 μM, template/primer (rA)n.(dT)10) was -86% and the inhibition at 10 µM ([3]; 10 μM) was 0%. For the same compound, the inhibition at 100 µM ([3]; 100 μM) was 44%, the inhibition at 500 µM ([3]; 500 μM) was 58% and the inhibition at 100 µM ([4]; 100 μM) was 25%. For the same compound, the inhibition at 500 µM ([4]; 500 μM) was 3%, the “skin condition after two weeks” value [5] was “the skin heals after about two weeks but remains hairless” and the skin irritation score ([5]; pH 6.5) was 2-3 score. The Percent inhibition ([6]; 10 μM) was 0%, the Percent inhibition ([6]; 100 μM) was 10% and the Percent inhibition ([6]; 500 μM) was 35%. The inhibition at 100 µM ([7]; 100 μM) was 0%, the inhibition at 500 µM ([7]; 500 μM) was 10% and the inhibition at 10 µM ([8]; 10 μM) was 5%. For the same compound, the inhibition at 100 µM ([8]; 100 μM) was 58% and the inhibition at 500 µM ([8]; 500 μM) was 71%.
